Reference: publication PMC12037037 (Proceedings of the National Academy of Sciences of the …, 2025)
Entries after “also recorded” stand apart in the source; their conditions may differ.

Key:
[1] = Pharmacokinetics studies (plasma and brain); format: in vivo, rats
Protocol: Pharmacokinetic studies of (+)-JRT.
rats following a 1 mg/kg IP administration of (+)-JRT fumarate (N = 3).
JRT in the brains of rats following a 1 mg/kg IP administration of (+)-JRT fumarate (N = 3 for the 0.25, 0.5, and 1.0 h time
points, N = 1 for the 2.0 h time point).
Pharmacokinetics Studies. […] Male Sprague Dawley rats (190 – 206 g) were purchased from Shanghai JiHui Laboratory Animal Co., Ltd (Shaghai, China) and were administered (+)-JRT fumarate via IP injection (1 mg/kg, 5 mL/kg) after overnight fasting. Animals were sacrificed and plasma and brain samples were collected at time points of 0.25, 0.5, 1, 2, and 4 hours post dose (N = 3 per time point). Approximately 150 μL of blood was collected into a K2EDTA tube via jugular vein. Blood samples were put on wet ice and centrifuged to obtain plasma samples (2000 g, 5 min, 4 °C) within 15 min. After blood collection, a mid-line incision was made into the scalp and the skin retracted. The skull overlaying the brain was removed, and the whole brain was collected, rinsed with cold saline, dried on filter paper, weighed, and snap frozen via dry ice. Plasma and brain samples were stored at approx. -70 °C until analysis.
For plasma samples, an aliquot of 30 μL sample was mixed with 200 μL internal standard (IS) (propranolol, 40 ng/mL in MeCN). The mixture was vortexed for 1 min and centrifuged at 5800 rpm for 10 min. The supernatant was collected and 0.5 μL was injected for LC-MS/MS analysis. Brain samples were homogenized with 2 volumes (v/w) of PBS (dilution factor of 3). The procedure for diluted brain samples was the same as the plasma samples. Plasma concentrations are reported as ng/mL and brain concentrations, with a dilution factor of 3 applied, are reported as ng/g. […]
1.61 min and 1.43 min respectively, and the analytes were ionized under a positive ion spray mode and detected through […]

[2] = test system: cultured rat embryonic cortical neurons; test: Neuritogenesis assay (Sholl analysis, DIV6); format: cell-based
Protocol: Figure S8. […] (A) Sholl analysis of embryonic day 18 (E18) rat cortical
(D) Area under the curves of the Sholl plots
N values are shown within the bars. VEH =
Neuritogenesis Assays. Neuritogenesis Assays were performed as previously described (17) with slight modifications.
Briefly, 96 well plates were coated with poly-D-lysine and approximately 15,000 cells/well. Neurons were treated after 3 days in vitro (DIV3) for 1 h followed by a complete media change. Cells were incubated for an additional 3 days before fixing and staining for MAP2 on DIV6. Neurites were visualized using a chicken anti-MAP2 antibody (1:10,000; EnCor, CPCA-MAP2) and an anti-chicken IgG secondary antibody conjugated to Alexa Fluor 488 (Life Technologies, 1:500). Plates were imaged in DPBS on a Thermo Scientific CellInsight CX7 High-Content Screening Platform at 20x (N.A. = 0.45). Images were analyzed using the Simple Neurite Tracer and Sholl analysis plug-ins for ImageJ Fiji (version 1.51N). Sholl analysis circle radii = 2 µm increments. All images were taken and analyzed by an experimenter blinded to treatment conditions.

[3] = test system: female C57BL/6J mice, medial prefrontal cortex; test: In vivo spinogenesis and synaptogenesis (S3EM, layer 1 mPFC); conditions: 24 h
[4] = biological target: T1, human ether-a-go-go related gene (hERG) channels (Homo sapiens, UniProt Q12809); test: hERG inhibition assay (Apconix); format: biochemical
T1 construct: Apconix
T1 sequence (Q12809 whole entry): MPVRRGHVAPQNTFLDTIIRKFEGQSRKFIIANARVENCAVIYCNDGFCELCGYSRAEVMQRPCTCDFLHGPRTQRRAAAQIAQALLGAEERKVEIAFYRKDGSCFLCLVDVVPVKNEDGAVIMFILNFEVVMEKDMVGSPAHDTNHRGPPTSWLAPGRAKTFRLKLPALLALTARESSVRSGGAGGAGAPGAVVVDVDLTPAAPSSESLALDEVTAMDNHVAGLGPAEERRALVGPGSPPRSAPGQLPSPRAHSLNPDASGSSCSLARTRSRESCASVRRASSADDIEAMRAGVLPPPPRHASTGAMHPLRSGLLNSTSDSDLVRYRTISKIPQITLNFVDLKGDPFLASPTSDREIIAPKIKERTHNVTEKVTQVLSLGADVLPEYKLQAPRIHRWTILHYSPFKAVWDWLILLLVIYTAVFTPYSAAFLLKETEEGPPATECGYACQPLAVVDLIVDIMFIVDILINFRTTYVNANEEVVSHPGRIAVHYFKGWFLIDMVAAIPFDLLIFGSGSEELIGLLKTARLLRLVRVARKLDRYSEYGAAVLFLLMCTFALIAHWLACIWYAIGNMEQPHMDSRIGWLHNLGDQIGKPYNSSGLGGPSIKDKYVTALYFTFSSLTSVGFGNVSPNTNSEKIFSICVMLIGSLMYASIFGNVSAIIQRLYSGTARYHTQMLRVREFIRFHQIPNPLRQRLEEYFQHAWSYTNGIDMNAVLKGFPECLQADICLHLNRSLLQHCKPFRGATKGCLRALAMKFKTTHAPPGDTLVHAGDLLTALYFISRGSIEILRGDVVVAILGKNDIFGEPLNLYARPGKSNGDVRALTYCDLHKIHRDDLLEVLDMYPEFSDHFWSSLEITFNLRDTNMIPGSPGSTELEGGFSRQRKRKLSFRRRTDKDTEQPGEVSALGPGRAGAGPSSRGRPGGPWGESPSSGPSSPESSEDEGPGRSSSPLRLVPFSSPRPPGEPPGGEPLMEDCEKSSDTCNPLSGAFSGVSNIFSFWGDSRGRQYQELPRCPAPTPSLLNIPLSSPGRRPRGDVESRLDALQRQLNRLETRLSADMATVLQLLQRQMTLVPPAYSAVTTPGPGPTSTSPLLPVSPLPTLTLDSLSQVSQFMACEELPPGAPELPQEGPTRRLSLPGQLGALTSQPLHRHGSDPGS
Protocol: (1 picture or pasted object on this page, not shown here)
Comparison Between WT and S242A5.46 psychLight Variants. Activity in WT and S242A5.46 mutant forms of PsychLight was quantified by deriving ligand activity ratios (log(Emax/EC50)). […]
and (+)-JRT were fit to a log(agonist) vs. response (three parameters) curve. The Emax/EC50 analysis was performed as previously described in detail by others (16):
Response = Basal + E!"# − Basal where Emax and Basal represent the top and bottom asymptotes of the curve fit, respectively; EC50 represents the concentration that gives a response halfway between Emax and Basal; and Log[A] is the logarithm of the agonist concentration. Then, ligand activity ratios, log(Emax/EC50) were calculated for each test ligand and statistical comparisons made between each other and between genotypes using a two-way ANOVA and significant interaction effects followed by a Šídák's multiple comparisons test.
ADME and hERG Inhbition Assays. […]
Briefly, 96 well plates were coated with poly-D-lysine and approximately 15,000 cells/well. […] Images were analyzed using the Simple Neurite Tracer and Sholl analysis plug-ins for ImageJ Fiji (version 1.51N). […] All images were taken and analyzed by an experimenter blinded to treatment conditions.
Spinogenesis Assays Using Cultured Rat Cortical Neurons. […] Images were analyzed using ImageJ Fiji (version 1.51N). […]

CCN(CC)C(=O)[C@@H]1C=C2c3cccc4ccn(c34)C[C@H]2N(C)C1 [(+)-JRT]
Presence in rat brain and plasma within 2 h ([1]; 1 mg/kg IP dose): nearly absent | Levels in plasma or brain at 4 h ([1]; 1 mg/kg IP, (+)-JRT fumarate, rats): below the limit of quantification | Brain concentration relative to the Ki at the 5-HT2AR ([1]; 1 mg/kg, rat): ~ 20 fold | Nmax (maximum number of crossings of the Sholl plots) ([2]; 1 μM, DIV6, compared to vehicle control): increased Nmax values to a greater extent than CLZ | Area under the curves of the Sholl plots (Figure S8D) ([2]; 1 µM, DIV6, VEH 1.000 ± 0.05010, mean ± SEM): 1.193 ± 0.05057 | Total branches (Figure S8C) ([2]; 1 µM, DIV6, VEH 2.325 ± 0.2641, mean ± SEM): 4.121 ± 0.3838 | Number of primary dendrites (Figure S8B) ([2]; 1 µM, DIV6, VEH 6.275 ± 0.2292, mean ± SEM): 8.152 ± 0.2824 | Synapse size ([3]; 1 mg/kg IP): remained unchanged | Increase in synapse density within the mPFC ([3]; single administration 1 mg/kg IP, S3EM): 18% | Increase in dendritic spine density within the mPFC ([3]; single administration 1 mg/kg IP, layer 1, S3EM): 46% | hERG channel inhibition [4]: does not inhibit hERG channels; also recorded: did not inhibit
